Results published in patent US6358885B1, “Substituted phenylheterocyclic herbicides” (Mississippi State University, priority 1992, dated 2002).

Assays:
rape = assay: Test C preemergence/postemergence greenhouse plant response rating 0 to 100; assay type: in vivo, Brassica napus; conditions: POSTEMERGENCE; for Plant response rating, Rape: 0 to 100 scale
In short: (§1)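 Compounds in non-phytotoxic solvent applied preemergence to sandy loam one day after planting, postemergence at the 1–4 leaf stage, or to ~2.5 cm floodwater over silt loam.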

crabgrass = assay: Test B preemergence/postemergence greenhouse plant response rating 0 to 10; assay type: in vivo, Digitaria spp.; conditions: 0 to 10 scale
In short: (§2)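 Test chemicals were sprayed onto freshly planted seed and, concurrently, onto young plants between the one and four leaf stage. After a twelve- to sixteen-day greenhouse period, each species was visually compared with untreated controls.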

lambsquarters = assay: as above; assay type: in vivo, Chenopodium album; conditions: 0 to 10 scale
In short: as §2

barnyardgrass [1] = assay: as above; assay type: in vivo, Echinochloa crus-galli; conditions: 0 to 10 scale
In short: as §2

wild buckwheat = assay: as above; assay type: in vivo, Polygonum convolvulus; conditions: 0 to 10 scale
In short: as §2

umbrella sedge = assay: Test C flood test plant response rating 0 to 100; assay type: in vivo, Cyperus difformis; conditions: for Plant response rating (0 to 100), Umbrella sedge: under POSTEMERGENCE head (flood test species); for Plant response rating Umbrella sedge: flood test species listed under POSTEMERGENCE, 0 to 100 scale
In short: as §1

cocklebur = assay: Test B preemergence/postemergence greenhouse plant response rating 0 to 10; assay type: in vivo, Xanthium pensylvanicum; conditions: 0 to 10 scale
In short: as §2

giant foxtail [2] = assay: as above; assay type: in vivo, Setaria faberii; conditions: 0 to 10 scale
In short: as §2

purple nutsedge = assay: as above; assay type: in vivo, Cyperus rotundus; conditions: 0 to 10 scale
In short: as §2

giant foxtail [3] = assay: Test C preemergence/postemergence greenhouse plant response rating 0 to 100; assay type: in vivo, Setaria faberii; conditions: POSTEMERGENCE; for Plant response rating, Giant foxtail: 0 to 100 scale
In short: as §1

soybean = assay: as above; assay type: in vivo, Glycine max; conditions: POSTEMERGENCE; for Plant response rating, Soybean: 0 to 100 scale
In short: as §1

cotton = assay: as above; assay type: in vivo, Gossypium hirsutum; conditions: POSTEMERGENCE; for Plant response rating, Cotton: 0 to 100 scale
In short: as §1

downy brome = assay: as above; assay type: in vivo, Bromus tectorum; conditions: POSTEMERGENCE; for Plant response rating Downy Brome: 0 to 100 scale
In short: as §1

barnyardgrass [4] = assay: Test C flood test plant response rating 0 to 100; assay type: in vivo, Echinochloa crus-galli; conditions: for Plant response rating (0 to 100), Barnyardgrass: under POSTEMERGENCE head (flood test species); for Plant response rating, Barnyardgrass: flood test species listed under POSTEMERGENCE, 0 to 100 scale
In short: as §1

wild oat [5] = assay: Test B preemergence/postemergence greenhouse plant response rating 0 to 10; assay type: in vivo, Avena fatua; conditions: 0 to 10 scale
In short: as §2

wild oat [6] = assay: Test C preemergence/postemergence greenhouse plant response rating 0 to 100; assay type: in vivo, Avena fatua; conditions: POSTEMERGENCE; for Plant response rating, Wild oat: 0 to 100 scale
In short: as §1

rice = assay: Test C flood test plant response rating 0 to 100; assay type: in vivo, Oryza sativa; conditions: for Plant response rating (0 to 100), Rice Japonica: under POSTEMERGENCE head (flood test species); for Plant response rating Rice Japonica: flood test species listed under POSTEMERGENCE, 0 to 100 scale
In short: as §1

chickweed = assay: Test C preemergence/postemergence greenhouse plant response rating 0 to 100; assay type: in vivo, Stellaria media; conditions: POSTEMERGENCE; for Plant response rating, Chickweed: 0 to 100 scale
In short: as §1

CC(C)OC(=O)COc1cc(-c2nn3c(c2Cl)CCCC3)c(F)cc1Cl [Compound 39]
Plant response rating, Rape (rape; 62 g/ha): 60 | Plant response rating, Rape (rape; 125 g/ha): 70 | Plant response rating (0 to 100), Rape (rape; Rate 16 g/ha): 20 | Plant response rating (0 to 100), Rape (rape; Rate 31 g/ha): 50 | Plant response rating, Crabgrass (crabgrass; POSTEMERGENCE, Rate 50 g/ha): 5 | Plant response rating, Crabgrass (crabgrass; POSTEMERGENCE, Rate 200 g/ha): 4 | Plant response rating, Crabgrass (crabgrass; PREEMERGENCE, Rate 50 g/ha): 0 | Plant response rating, Crabgrass (crabgrass; Rate 200 g/ha, PREEMERGENCE): 2 | Plant response rating, Lambsquarter (lambsquarters; POSTEMERGENCE, Rate 50 g/ha): 9 | Plant response rating, Lambsquarter (lambsquarters; PREEMERGENCE, Rate 50 g/ha): 10 | Plant response rating, Lambsquarter (lambsquarters; Rate 200 g/ha, POSTEMERGENCE): 10 | Plant response rating, Lambsquarter (lambsquarters; Rate 200 g/ha, PREEMERGENCE): 10 | Plant response rating, Barnyardgrass (barnyardgrass [1]; POSTEMERGENCE, Rate 50 g/ha): 4 | Plant response rating, Barnyardgrass (barnyardgrass [1]; POSTEMERGENCE, Rate 200 g/ha): 6 | Plant response rating, Barnyardgrass (barnyardgrass [1]; PREEMERGENCE, Rate 50 g/ha): 0 | Plant response rating, Barnyardgrass (barnyardgrass [1]; Rate 200 g/ha, PREEMERGENCE): 2 | Plant response rating, Wild buckwheat (wild buckwheat; POSTEMERGENCE, Rate 50 g/ha): 10 | Plant response rating, Wild buckwheat (wild buckwheat; PREEMERGENCE, Rate 50 g/ha): 10 | Plant response rating, Wild buckwheat (wild buckwheat; Rate 200 g/ha, POSTEMERGENCE): 10 | Plant response rating, Wild buckwheat (wild buckwheat; Rate 200 g/ha, PREEMERGENCE): 10 | Plant response rating (0 to 100), Umbrella sedge (umbrella sedge; Rate 16 g/ha): 0 | Plant response rating (0 to 100), Umbrella sedge (umbrella sedge; Rate 31 g/ha): 0 | Plant response rating Umbrella sedge (umbrella sedge; 62 g/ha): 60 | Plant response rating Umbrella sedge (umbrella sedge; 125 g/ha): 70 | Plant response rating, Cocklebur (cocklebur; POSTEMERGENCE, Rate 50 g/ha): 10 | Plant response rating, Cocklebur (cocklebur; POSTEMERGENCE, Rate 200 g/ha): 10 | Plant response rating, Cocklebur (cocklebur; PREEMERGENCE, Rate 50 g/ha): 0 | Plant response rating, Cocklebur (cocklebur; Rate 200 g/ha, PREEMERGENCE): 1 | Plant response rating, Giant foxtail (giant foxtail [2]; POSTEMERGENCE, Rate 50 g/ha): 4 | Plant response rating, Giant foxtail (giant foxtail [2]; PREEMERGENCE, Rate 50 g/ha): 5 | Plant response rating, Giant foxtail (giant foxtail [2]; Rate 200 g/ha, POSTEMERGENCE): 5 | Plant response rating, Giant foxtail (giant foxtail [2]; Rate 200 g/ha, PREEMERGENCE): 2 | Plant response rating, Nutsedge (purple nutsedge; POSTEMERGENCE, Rate 50 g/ha): 5 | Plant response rating, Nutsedge (purple nutsedge; PREEMERGENCE, Rate 50 g/ha): 0 | Plant response rating, Nutsedge (purple nutsedge; Rate 200 g/ha, POSTEMERGENCE): 4 | Plant response rating, Nutsedge (purple nutsedge; Rate 200 g/ha, PREEMERGENCE): 0 | Plant response rating, Giant foxtail (giant foxtail [3]; 62 g/ha): 30 | Plant response rating, Giant foxtail (giant foxtail [3]; 125 g/ha): 60 | Plant response rating (0 to 100), Giant foxtail (giant foxtail [3]; Rate 16 g/ha): 10 | Plant response rating (0 to 100), Giant foxtail (giant foxtail [3]; Rate 31 g/ha): 20 | Plant response rating, Soybean (soybean; 62 g/ha): 60 | Plant response rating, Soybean (soybean; 125 g/ha): 70 | Plant response rating (0 to 100), Soybean (soybean; Rate 16 g/ha): 30 | Plant response rating (0 to 100), Soybean (soybean; Rate 31 g/ha): 50 | Plant response rating, Cotton (cotton; 62 g/ha): 100 | Plant response rating, Cotton (cotton; 125 g/ha): 100 | Plant response rating (0 to 100), Cotton (cotton; Rate 16 g/ha): 100 | Plant response rating (0 to 100), Cotton (cotton; Rate 31 g/ha): 100 | Plant response rating Downy Brome (downy brome; 62 g/ha): 30 | Plant response rating Downy Brome (downy brome; 125 g/ha): 40 | Plant response rating (0 to 100), Downy Brome (downy brome; Rate 16 g/ha): 10 | Plant response rating (0 to 100), Downy Brome (downy brome; Rate 31 g/ha): 20 | Plant response rating (0 to 100), Barnyardgrass (barnyardgrass [4]; Rate 16 g/ha): 50 | Plant response rating (0 to 100), Barnyardgrass (barnyardgrass [4]; Rate 31 g/ha): 80 | Plant response rating, Barnyardgrass (barnyardgrass [4]; 62 g/ha): 90 | Plant response rating, Barnyardgrass (barnyardgrass [4]; 125 g/ha): 95 | Plant response rating, Wild oat (wild oat [5]; POSTEMERGENCE, Rate 50 g/ha): 3 | Plant response rating, Wild oat (wild oat [5]; PREEMERGENCE, Rate 50 g/ha): 0 | Plant response rating, Wild oat (wild oat [5]; Rate 200 g/ha, POSTEMERGENCE): 3 | Plant response rating, Wild oat (wild oat [6]; 62 g/ha): 20 | Plant response rating, Wild oat (wild oat [6]; 125 g/ha): 30 | Plant response rating (0 to 100), Wild oat (wild oat [6]; Rate 16 g/ha): 10 | Plant response rating (0 to 100), Wild oat (wild oat [6]; Rate 31 g/ha): 20 | Plant response rating (0 to 100), Rice Japonica (rice; Rate 16 g/ha): 20 | Plant response rating (0 to 100), Rice Japonica (rice; Rate 31 g/ha): 30 | Plant response rating Rice Japonica (rice; 62 g/ha): 30 | Plant response rating Rice Japonica (rice; 125 g/ha): 30 | Plant response rating, Chickweed (chickweed; 62 g/ha): 40 | Plant response rating, Chickweed (chickweed; 125 g/ha): 70 | Plant response rating (0 to 100), Chickweed (chickweed; Rate 16 g/ha): 20 | Plant response rating (0 to 100), Chickweed (chickweed; Rate 31 g/ha): 30
